PubChem BioAssay (NCI)
Several values for one entry are separate records, joined by “and”; a condition that tells them apart may be missing. Equal values may be shown once.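 Five concentrations, 48 hours, 96-well plates. The concentration for 50% growth inhibition is given as GI50. TGI denotes the concentration required for complete inhibition of growth.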 *1 amine or outer side, *2 acyl side, *3 side chain or, on linkers, in order; H or OH if unused. Where a SMILES comes first, the peptide text is derived from it. Bridges are numbered along the chain shown (N, C = ends). [ ]: non-standard residue; d: D form. The star is where a group is joined. Phe(3-Me) = Cc1cccc(C[C@H](N)C(=O)O)c1; NH(4-Cl-2-F-phenyl) = Fc1cc(Cl)ccc1N*; Pro(4R-Me) = C[C@H]1CN[C@H](C(=O)O)C1; Propanoyl(3-NMe2) = CN(C)CCC(=O)*; Hyp = O=C(O)[C@@H]1C[C@@H](O)CN1; aThr = C[C@H](O)[C@H](N)C(=O)O; Pip = O=C(O)[C@@H]1CCCCN1; CO = O=C([*:1])[*:2]

Assays:
Assay in all cases: NCI anticancer screen, dose series, 48 h
[1] = test system: OVCAR-3 ovarian
[2] = test system: TK-10 renal
[3] = test system: SF-539 CNS
[4] = test system: UACC-62 melanoma
[5] = test system: SK-OV-3 ovarian
[6] = test system: MCF7 breast
[7] = test system: RXF 393 renal
[8] = test system: NCI/ADR-RES ovarian
[9] = test system: T-47D breast
[10] = test system: M14 melanoma

SMILES | GI50 [1] [µM] | TGI [1] | GI50 [2] [µM] | TGI [2] | GI50 [3] [µM] | TGI [3] | GI50 [4] [µM] | TGI [4] | GI50 [5] [µM] | TGI [5] | GI50 [6] [µM] | TGI [6] | GI50 [7] [µM] | TGI [7] | GI50 [8] [µM] | TGI [8] [µM] | GI50 [9] [µM] | TGI [9] [µM] | GI50 [10] [µM] | TGI [10]
COc1cc2c3c(c4c5ccccc5[nH]c4c2c(OC)c1OC)C(=O)N(CCN1CCCCC1)C3=O | 1.31 | 2.77 µM | 1.3 | 2.72 µM | 1.38 | 2.72 µM | 3.88 | 9.12 µM | 1.18 | 2.53 µM | 0.734 | 3.09 µM | 0.502 | 1.89 µM | 0.892 | 3.19 | 6.09 | > 25.5 | 1.82 | 4.25 µM
COc1ccc(CNc2nc(NCc3ccc(OC)cc3)c3n[nH]c(C(C)C)c3n2)cc1 | 3.04 | 14.5 µM | 8.29 | 24.4 µM | 5.98 | 23.5 µM | 5.94 | 20 µM | 8.3 | 22.9 µM | 3.31 | 13.9 µM | 18.6 | > 100 µM | 3.59 | 15.9 | 3.38 | 42.6 | 2.28 | 5 µM
CC(=O)Nc1sc2c(c1-c1nc3ccccc3s1)CNC2 | 3.85 | 24.4 µM | 4.74 | 24.4 µM | 2.17 | 8.52 µM | 2.76 | 11.7 µM | 4.05 | 39.2 µM | 0.865 | 7.88 µM | 2.25 | 7.96 µM | 1.97 | 15.7 | 2.36 | 22.3 | 2.47 | 9.71 µM
Nc1nc2c(c3cnccc13)C(c1cccc(Cl)c1)Cc1cnccc1-2 (stereo not given) | 0.293 | 13.1 µM | 0.696 | 13.7 µM | 0.255 | 0.752 µM | 0.371 | 12 µM | 0.51 | 15 µM | 0.292 | 11.6 µM | 0.268 | 0.765 µM | 0.237 | 0.663 | 0.384 | 25.2 | 0.297 | 11 µM
O=C(O)/C=C\C(=O)Nc1ccc2c(c1)C(=O)c1cc(F)ccc1-2 |  | > 100 µM |  | > 100 µM |  | > 100 µM |  | > 100 µM |  | > 100 µM |  | > 100 µM |  | > 100 µM |  | > 100 |  | > 100 |  | > 100 µM
O=C1c2cccnc2C(=O)c2c1c(C(=O)OCCN1CCOCC1)c1ccccn21 | 0.0671 | 1.11 µM | 0.163 | 2.72 µM | < 0.01 | < 0.0212 µM | < 0.01 | 0.11 µM | < 0.01 | 0.0371 µM | < 0.01 | 0.041 µM | < 0.0187 | 2.91 µM | < 0.01 | 13 | 0.228 | 5.25 | < 0.01 | 0.116 µM
CC[C@@]1(O)C(=O)OCc2c1cc1n(c2=O)Cc2c-1nc1ccccc1c2/C=N/OC(C)(C)C | 0.0804 | 1.78 µM | 0.0787 | 3.52 µM | < 0.01 | < 0.0216 µM | < 0.01 | 0.118 µM | < 0.01 | 1.34 µM | < 0.01 | 5.69 µM | < 0.01 | 0.0639 µM | < 0.01 | 0.395 | < 0.01 | 15.1 | < 0.01 | 0.226 µM
Cc1cccc(C[C@H](NC(=O)Nc2ccc(Cl)cc2F)C(=O)N[C@@H]2C(=O)N3C[C@H](OC(=O)CCN(C)C)C[C@H]3C(=O)N3CCCC[C@H]3C(=O)N[C@@H](C)C(=O)N3C[C@H](C)C[C@H]3C(=O)O[C@H]2C)c1 ({NH(4-Cl-2-F-phenyl)-CO}-[Phe(3-Me)][aThr][Hyp](Propanoyl(3-NMe2))[Pip]A[Pro(4R-Me)]; ester 2-C) | 0.362 | 1.47 µM | 2.16 | 10.6 µM | 0.704 | 2.17 µM | 0.569 | 2.06 µM | 0.487 | 5.74 µM | 0.394 | 1.83 µM | 1.23 | 2.85 µM | 10.8 | 28.5 | 0.448 | 4.53 | 0.474 | 1.89 µM
CCN(CC)CC(O)C1CCC(c2ccccc2)CC1 (stereo not given) |  | > 100 µM |  | 31.2 µM |  | 40.2 µM |  | 30.9 µM |  | 36.6 µM |  | 84.6 µM |  | 45.1 µM |  | > 100 |  | > 100 |  | 80.4 µM
C=C1N(C)c2ccc(Cl)cc2C1(C)C | 4.95 | 38.2 µM | 14.7 | 69.2 µM | 19.6 | 62.5 µM | 11.7 | 29.5 µM | 18.1 | 65.4 µM | 6.65 | 58.7 µM | 6.41 | 35.8 µM | 34.8 | > 100 | 3.54 | > 100 | 5.73 | 24.5 µM
O=C(CCl)Nc1ccc2c(c1)C(=O)c1ccc(NC(=O)CCl)cc1C2=O | 0.277 | 0.885 µM | 1.81 | 7.33 µM | 0.301 | 0.866 µM | 0.299 | 0.99 µM | 1.63 | 7.01 µM | 0.194 | 0.79 µM | 0.288 | 0.928 µM | 0.352 | 1.78 | 1.22 | 3.95 | 0.236 | 0.781 µM
COc1cc2c3c(n(CCCCl)c(=O)c2cc1OC)-c1ccc(C#N)cc1C3=O | 12.9 | 30.1 µM | 13.5 | 29.3 µM | 7.18 | 28.2 µM | 6.81 | 22.5 µM | 15.2 | 44 µM | 7.3 | > 100 µM | 3.85 | 18.1 µM | 22.4 | > 100 | > 100 | > 100 | 9.24 | > 100 µM
O=S(=O)(NCCCNc1cc(-c2cn(-c3ccccc3)nc2-c2cccc(O)c2)ccn1)c1ccc(Cl)cc1 | 1.67 | 3.7 µM | 3.16 | 8.97 µM | 1.77 | 3.79 µM | 1.67 | 3.67 µM | 2.35 | 7.35 µM | 1.84 | 5.01 µM | 0.846 | 2.8 µM | 1.94 | 5.3 | 1.48 | 5.21 | 1.6 | 3.2 µM
Cc1ccccc1/C=C1\CN(C(=O)OC(C)(C)C)C/C(=C\c2ccccc2C)C1=O | 1.85 | 3.65 µM | 3.65 | 15 µM | 1.94 | 3.64 µM | 2 | 4.42 µM | 5.77 | 70.5 µM | 2.21 | > 100 µM | 1.66 | 3.21 µM | 3.49 | 65.1 | 3.78 | > 100 | 2.97 | 13.5 µM
C=C(CN1CCN(c2cccc(F)c2)CC1)c1ccc(C(=O)Nc2ccccc2N)cc1 | 1.94 | 17.7 µM | 5.95 | > 100 µM | 1.45 | 5.77 µM | 2.02 | 63.5 µM | 5.31 | > 100 µM | 0.691 | > 100 µM | 0.563 | 6.09 µM | 0.307 | 1.92 | 4.38 | > 100 | 0.311 | 2.38 µM
Cc1ccc(NC(=O)c2nc(S(C)=O)oc2-c2ccc(F)cc2)cc1Nc1nccc(-c2cccnc2)n1 (stereo not given) | 1.87 | 3.39 µM | 2.82 | 6.25 µM | 1.77 | 3.71 µM | 1.8 | 3.38 µM | 10.5 | 25.7 µM | 1.87 | 3.86 µM | 1.86 | 3.46 µM | 3.07 | 11.9 | 1.73 | 3.68 | 1.99 | 4.34 µM
Nc1c(C(=O)Nc2ccccc2)sc2nc3c(cc12)CCCC3 | 0.481 | 12.3 µM | 16.8 | > 100 µM | 0.452 | 3.9 µM | 0.493 | > 100 µM | 0.832 | 37.5 µM | 0.355 | > 100 µM | 0.744 | 8.17 µM | 0.683 | > 100 | 0.918 | > 63.2 | 0.487 | > 100 µM
S=C(N/N=C(/c1ccccc1)c1ccccn1)Nc1cccc(Cl)c1 | < 0.001 | 1.98 µM and 4.59 µM | 0.0277 | 2.41 µM and 6 µM | 1.12 | 2.97 µM and 5.99 µM |  | 0.793 µM and 2.66 µM | 0.0671 | 2.93 µM and 3.73 µM | 0.00544 | 0.918 µM and 6.01 µM |  | 2.51 µM and 3.86 µM | 0.0619 | 4.38 | 0.56 |  | 0.0154 | 2.24 µM and 1.89 µM
O=C1OC2C(O)C(=O)OC2C1O (stereo not given) |  | > 100 µM |  |  |  | > 100 µM |  | > 100 µM |  | > 100 µM |  | > 100 µM |  | > 100 µM |  | > 100 |  | > 100 |  | > 100 µM
COc1cc(NC(N)=NCCC(C)(C)c2ccc(C(F)(F)F)cc2)ncc1C#N | 1.79 | 3.5 µM | 1.51 | 2.88 µM | 1.87 | 3.33 µM | 1.71 | 3.1 µM | 2.13 | 4.06 µM | 1.45 | 2.98 µM | 1.79 | 3.24 µM | 1.8 | 3.29 | 1.51 | 3.5 | 1.7 | 3.24 µM
CNC1C(OC2C(OC3C(O)C(O)C(O)C(O)C3O)OC(C)C2(O)CO)OC(CO)C(O)C1O (stereo not given) (tested in a mixture with another compound) |  | > 100 µM |  | > 100 µM |  | > 100 µM |  | > 100 µM |  | > 100 µM |  | > 100 µM |  | > 100 µM |  | > 100 |  | > 100 |  | > 100 µM
CCCCCCCCCC(CCCC(O)CC(=O)O)OC1OC(COC2OC(C)C(O)C(O)C2O)C(O)C(O)C1OC1OC(CO)C(O)C(O)C1OC1OC(C)C(O)C(O)C1O (stereo not given) | > 40 | > 40 µM | > 40 | > 40 µM | > 40 | > 40 µM | > 40 | > 40 µM | > 40 | > 40 µM | > 40 | > 40 µM | > 40 | > 40 µM | > 40 | > 40 | > 40 | > 40 | > 40 | > 40 µM
O=C(CN1CCN(c2ccc(Cl)cc2)CC1)N1CCN(c2nnc(-c3ccccc3)c(-c3ccccc3)n2)CC1 | 8.38 | > 100 µM | > 100 | > 100 µM | 7.65 | > 100 µM |  |  | 75.7 | > 100 µM | 3.38 | > 100 µM | 15 | > 100 µM | 5.4 | > 100 | 2 | > 100 | > 100 | > 100 µM
C[n+]1ccc(-c2c3nc(c(-c4ccc5c(ccc[n+]5C)c4)c4ccc([nH]4)c(-c4cc[n+](C)cc4)c4nc(c(-c5ccc6c(ccc[n+]6C)c5)c5ccc2[nH]5)C=C4)C=C3)cc1 | 7.91 | 40.5 µM | 10.1 | > 50 µM |  |  | > 50 | > 50 µM | > 50 | > 50 µM | 42.5 | > 50 µM | 13.9 | > 50 µM | > 50 | > 50 | 12.4 | 48.7 | > 50 | > 50 µM
CSc1nc2c(c(=O)[nH]1)C(c1ccc(Cl)cc1)C1=C(N2)/C(=C/c2ccc(Cl)cc2)CNC1 (stereo not given) | 2.23 | 5.19 µM |  |  | 1.78 | 3.5 µM | 2.02 | 4.5 µM | 2.66 | 6.33 µM | 1.94 | 5.85 µM | 1.65 | 3.42 µM | 3.29 | 16.5 | 3.65 | 15.7 | 2.23 | 6.18 µM
